Data: patent US20250000908A1, “METHODS FOR PREPARING AND ADMINISTERING CRYOPRESERVED PLATELETS AND PLATELET DERIVATIVES LOADED WITH ANTI-CANCER DRUGS” (Cellphire, Inc., priority 2023, published 2025)
pIC50: −log10 of the molar value.

Columns and labels:
platelets = assay: effect of antiplatelet compounds on DOX-induced platelet aggregation; assay type: cell-based; conditions: reagent at recommended concentration
HepG2 cells = assay: receptor mediated binding between CPP or FPH and HepG2 cells with inhibitors / blocking mabs; assay type: cell-based, human; conditions: inhibitor / blocking mab tested, Table 7
Procedure: Receptor mediated binding between CPP or FPH with HepG2 cells was investigated by inhibiting either a platelet receptor or a HepG2 receptor. Pooled apheresis platelets were incubated with 50 μM CFDA-Se for 60 minutes at room temperature then acidified to pH of 6.6-6.8 with citric acid. CPP and FPH were then created as disclosed in Example 1 but without doxorubicin. Untreated HepG2 cells served as negative control groups. HepG2 cells were seeded at a density of 10^5 cells in a 12-well plate (NuncTM Cell-Culture Treated Multidishes, catalog no: 150628) After incubation for 24 hours, the original medium was […] hours with fresh 0.5% FBS DMEM (ATCC-formulated Eagle's Minimum Essential Medium, catalog No. 30-2003). To determine the effect of platelet receptor inhibition on the binding between CPP/FPH and HepG2 cells first both CPP and FPH were incubated with tirofiban to block the GpIIb/IIIa receptor. Then the HepG2 cells were supplemented with tirofiban treated CPP, tirofiban treated FPH, untreated CPP, or untreated FPH at an equivalent platelet count of 0.3×10^6 platelets/μl. The cells were then washed with cold PBS three times, harvested by a scraper, and then suspended in PBS. The fluorescence intensity was determined by flow cytometry with the FITC channel. Approximately 10,0000 events for each sample was measured to assess the surface binding between the HepG2 cells and tirofiban treated CPP or FPH. To determine the effect of HepG2 receptor inhibition on the binding between CPP/FPH and HepG2 cells, first HepG2 cells were treated with either anti-podoplanin blocking monoclonal antibody or phagocytosis (wortmannin) inhibitor for 30 minutes. Then the HepG2 cells were incubated with either CPP or FPH. The HepG2 cells were washed with cold PBS three times, harvested by a scraper, and then suspended in PBS. The fluorescence intensity was determined by flow cytometry with the FITC channel. Approximately 10,0000 events for each sample was measured to assess the surface binding between the HepG2 cells CPP or FPH. […]

GPIIb/IIIa = GPIIb/IIIa (Homo sapiens, UniProt P05106+P08514); conditions: printed as recommended concentration; source PMID: 9700979; cited from earlier work
Chain of GPIIb/IIIa (P08514 32-887 limits assumed): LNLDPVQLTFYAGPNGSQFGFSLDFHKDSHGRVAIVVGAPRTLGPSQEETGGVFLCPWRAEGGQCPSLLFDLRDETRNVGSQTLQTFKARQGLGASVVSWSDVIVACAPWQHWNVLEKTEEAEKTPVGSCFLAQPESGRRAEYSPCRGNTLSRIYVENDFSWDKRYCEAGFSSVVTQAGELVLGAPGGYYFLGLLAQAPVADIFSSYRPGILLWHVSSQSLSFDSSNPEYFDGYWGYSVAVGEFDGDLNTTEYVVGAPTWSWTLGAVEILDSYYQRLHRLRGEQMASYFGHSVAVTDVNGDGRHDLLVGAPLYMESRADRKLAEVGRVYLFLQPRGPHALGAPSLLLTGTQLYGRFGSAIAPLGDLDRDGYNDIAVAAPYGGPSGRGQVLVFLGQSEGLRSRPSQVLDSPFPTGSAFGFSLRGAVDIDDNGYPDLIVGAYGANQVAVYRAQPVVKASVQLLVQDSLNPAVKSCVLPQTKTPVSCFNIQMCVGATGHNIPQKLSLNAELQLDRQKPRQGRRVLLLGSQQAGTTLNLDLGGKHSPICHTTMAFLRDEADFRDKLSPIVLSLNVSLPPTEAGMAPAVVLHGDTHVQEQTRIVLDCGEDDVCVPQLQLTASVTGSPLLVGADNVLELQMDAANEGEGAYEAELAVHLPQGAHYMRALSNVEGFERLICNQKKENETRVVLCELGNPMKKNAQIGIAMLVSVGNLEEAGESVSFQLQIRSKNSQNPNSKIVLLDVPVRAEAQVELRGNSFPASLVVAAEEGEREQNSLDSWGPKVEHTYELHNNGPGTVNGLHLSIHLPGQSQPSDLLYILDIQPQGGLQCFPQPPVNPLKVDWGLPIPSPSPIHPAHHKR
Chain of GPIIb/IIIa (P08514 891-1039 partner limits assumed): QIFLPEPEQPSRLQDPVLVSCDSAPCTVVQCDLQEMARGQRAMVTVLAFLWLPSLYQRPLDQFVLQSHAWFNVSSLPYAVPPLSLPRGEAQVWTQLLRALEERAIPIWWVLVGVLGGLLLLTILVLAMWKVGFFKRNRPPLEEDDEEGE
Chain of GPIIb/IIIa (P05106 27-788): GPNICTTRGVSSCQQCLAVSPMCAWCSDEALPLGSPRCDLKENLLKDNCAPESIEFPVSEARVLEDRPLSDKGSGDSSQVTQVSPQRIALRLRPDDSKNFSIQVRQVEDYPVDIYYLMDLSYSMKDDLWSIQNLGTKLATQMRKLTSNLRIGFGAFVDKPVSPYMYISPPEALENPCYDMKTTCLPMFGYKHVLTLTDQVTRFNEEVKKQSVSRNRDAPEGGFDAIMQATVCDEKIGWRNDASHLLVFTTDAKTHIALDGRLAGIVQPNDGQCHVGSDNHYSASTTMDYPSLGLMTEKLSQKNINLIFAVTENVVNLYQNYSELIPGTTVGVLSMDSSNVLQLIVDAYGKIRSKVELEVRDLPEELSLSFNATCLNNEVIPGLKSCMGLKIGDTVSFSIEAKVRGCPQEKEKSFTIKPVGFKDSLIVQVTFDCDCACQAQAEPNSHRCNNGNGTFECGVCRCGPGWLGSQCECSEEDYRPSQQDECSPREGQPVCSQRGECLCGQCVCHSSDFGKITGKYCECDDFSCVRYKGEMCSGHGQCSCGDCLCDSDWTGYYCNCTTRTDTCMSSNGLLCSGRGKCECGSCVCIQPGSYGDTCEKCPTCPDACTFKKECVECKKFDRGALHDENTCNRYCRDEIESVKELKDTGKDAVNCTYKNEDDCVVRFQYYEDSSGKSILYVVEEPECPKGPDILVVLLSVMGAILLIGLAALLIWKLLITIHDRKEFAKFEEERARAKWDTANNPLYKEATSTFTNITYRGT

Structure (SMILES)	Max Platelet Count (Normalized to Untreated) (platelets; 0.5 mg/mL DOX) [%]	Max Platelet Count (Normalized to Untreated) (platelets; 1 mg/mL DOX) [%]	other results
CC(=O)Oc1ccccc1C(=O)O [Aspirin (ASA), Aspirin]	52	15	–
CSCCNc1nc(SCCC(F)(F)F)nc2c1ncn2[C@@H]1O[C@H](COP(=O)(O)OP(=O)(O)C(Cl)(Cl)P(=O)(O)O)[C@@H](O)[C@H]1O [Cangrelor]	47	26	–
CN(C)CCCN1c2ccccc2Sc2ccc(Cl)cc21 [Chlorpromazine]	–	–	change of CPP/FPH binding to HepG2 cells in comparison to control (HepG2 cells): No Significance
COC(=O)/C=C1/SC(=NC(=O)c2ccc(Cl)cc2Cl)N(c2ccc(Cl)cc2)C1=O [FR171113]	51	16	–
Cl.Cl.Cl.N=C(N)c1ccc(N2CCN(C3CCN(CC(=O)O)CC3)CC2)cc1 [GR144053]	83	42	pIC50 (GPIIb/IIIa): 7.43
O=c1c(-c2ccc(O)cc2)coc2cc(O)cc(O)c12 [Genistein]	–	–	change of CPP/FPH binding to HepG2 cells in comparison to control (HepG2 cells): No Significance
CSc1nc(N)c2ncn([C@@H]3O[C@H](COP(=O)(O)OP(=O)(O)O)[C@@H](O)[C@H]3O)c2n1 [MeSADP]	33	10	–
CC1(C)CC(NC(=O)C[P+](c2ccccc2)(c2ccccc2)c2ccccc2)CC(C)(C)N1[O] [MitoTEMPO]	–	–	Max Platelet Count (Normalized to Untreated) (platelets; 1.2 mM DOX): 37%
CC(=O)N[C@@H](CS)C(=O)O [N-Acetylcysteine]	–	–	Max Platelet Count (Normalized to Untreated) (platelets; 0.6 mM DOX): 73%
Nc1c(S(=O)(=O)O)cc(Nc2ccc(Nc3ccccc3)c(S(=O)(=O)O)c2)c2c1C(=O)c1ccccc1C2=O [PSB 0739]	26	18	–
CCCCS(=O)(=O)N[C@@H](Cc1ccc(OCCCCC2CCNCC2)cc1)C(=O)O [Tirofiban]	–	–	Max Platelet Count (Normalized to Untreated) (platelets; 0.6 mM DOX): 73%; change of CPP/FPH binding to HepG2 cells in comparison to control (HepG2 cells): Significance
